The text below walks through data of patent US12616697B2, “Methods of treatment with myosin modulator” (MyoKardia, Inc., priority 2020, dated 2026).

Molecules are shown by their SMILES.

Data set [1] relates to Yucatan mini-pigs with a heterozygous MYH7 R403Q mutation. Briefly: Chronic MYK-581 in mini-pig genetic model of non-obstructed HCM (cMR imaging, invasive hemodynamics, dobutamine challenge). In kind it is in vivo. Conditions: corrected for plasma protein binding and potency differences MYK-581 vs mavacamten. The protocol: The mini-pigs were treated for at least 12 weeks and were evaluated as shown in Schematic 1 below. […] After ˜14 weeks of treatment, all pigs underwent in vivo cMR imaging for the assessment of LV function and geometry, as well as of myocardial composition via of Late Gadolinium Enhancement (LGE) and T1 mapping techniques including extracellular volume (ECV) assessments. In addition, a subset of animals (MYK: n=6, CTRL: n=5) also underwent terminal invasive hemodynamics assessments, including cardiac output (CO, via thermodilution), load-independent systolic/diastolic function (via LV pressure-volume relationships), and β-adrenergic (β-AR) cardiac reserve (via dobutamine at 5 ug/kg/min IV).
The mini-pig model can be obtained following the method disclosed in a presentation entitled “A Minipig Genetic Model of Hypertrophic Cardiomyopathy Uncovers the Pathophysiological Mechanisms of Disease Evolution”, by E. Green et al., at University of Iowa, Carver College of Medicine.

The subject of data set [2] is participants with symptomatic oHCM. Briefly: EXPLORER-HCM Phase 3 double blind, randomized, placebo controlled study. In kind it is in vivo, human. The text has this:
A subset of participants consented to participate in a CMR substudy at selected sites. Randomization was stratified according to NYHA functional classification (II or III), current treatment with β-blocker (yes or no), planned type of ergometer used during the study (treadmill or exercise bicycle), and consent for the CMR substudy (yes or no).
1) Screening period (Day −35 to Day −1): Participants will undergo a variety of general, cardiopulmonary, laboratory, symptom, and PRO assessments over 1 to 2 days in order to assess eligibility. Key Screening tests include electrocardiogram (ECG); transthoracic echocardiography (TTE) conducted at rest, with Valsalva maneuver, and post-exercise; as well as cardiopulmonary exercise testing (CPET). The following screening assessments may be repeated, as long as within the 35-days screening window: blood tests, ECG, and/or TTE. Repeat assessments are allowed if central core labs require a repeat submission due to quality and in order to better assess inclusion/exclusion values. Participants who screen fail may be considered for rescreening based on the investigator's discretion, taking into consideration the reason(s) for screen fail. One attempt at rescreening will be allowed, and all procedures must be repeated.
2) Double-blind treatment period (Day 1 [randomization] to Week 30/end of treatment [EOT]): The double-blind treatment period will include a two-step dose titration scheme designed to achieve safe and effective dosing for each participant based on their own response parameters. […] Subsequently, assessments including ECG, PK (trough plasma concentrations), and TTE will be performed at each of 7 study visits, beginning at Week 4, and read by core laboratories. At Week 8 and Week 14, the dose may be increased, decreased, or remain unchanged based upon results of Week 6 and Week 12 assessments, respectively, and based primarily on measurements of provoked left ventricular outflow tract (LVOT) gradient and bounded by a target plasma concentration (PK) range and clinical tolerability (LVEF). At Week 8, the dose may be increased to a maximum daily dose of 10 mg (ie, increase from 5 mg QD to 10 mg QD), and at Week 14 to a maximum daily dose of 15 mg (ie, increase from 10 mg QD to 15 mg QD). Dose increases are designed to be step wise and are not allowed to skip doses (eg, from 5 mg to 15 mg).
At Week 30/EOT, participants will complete CPET and post-exercise TTE. For any participants permanently discontinuing treatment prior to Week 30, an early termination (ET) visit should be conducted as soon as possible, including CPET and post-exercise TTE. Participants with ET will also be encouraged to complete all remaining study visits and assessments, including the Week 30 visit.
3) Posttreatment follow-up period (Week 30/EOT to Week 38/end of study [EOS]): When double-blind treatment ends at Week 30, participants will be contacted by phone at Week 34 and return to the site at Week 38 for an EOS visit. At the EOS visit, specified assessments will be repeated. This posttreatment follow-up period applies only to participants who are receiving study drug after Week 22.
To maintain safety throughout the double-blind treatment period, a clinic visit will occur every 2 to 4 weeks, beginning at Week 4 for an initial evaluation of clinical tolerability and safety. Clinic visits will include but are not limited to clinical evaluation (symptoms, PRO evaluations, adverse event [AE]/serious adverse event [SAE] assessment), ECGs, PK sample, TTEs, and laboratory assessments. Results of TTE performed by study site sonographers at each scheduled visit following randomization should be kept blinded to the investigator and other study site personnel. An exception may occur if left ventricular ejection fraction (LVEF)≤30% is measured at the site, then the investigator will be immediately notified and study drug will be permanently discontinued as described within the protocol. […]

Consider `CC(C)n1c(=O)cc(N[C@@H](C)c2ccccc2)[nH]c1=O` [mavacamten, (S)-3-Isopropyl-6-((1-phenylethyl)amino)pyrimidine-2, 4(1H,3H)-dione], for which the “equivalent human plasma concentrations” value in data set [1] was 50 to 250 ng/mL. In addition, in data set [2] (Type 1 - pVO2 ≥1.5 ml/kg/min and NYHA improved ≥1, mavacamten group (n = 123)), the “Response Type 1, n (%)” value is on record as 41 (33.3) n (%). The “Response Type 2, n (%)” value in data set [2] (Type 2 - pVO2 ≥3.0 ml/kg/min and no worsening NYHA, mavacamten group (n = 123)) is 29 (23.6) n (%). Further, the “Met Composite Functional Response, either type: Mavacamten vs Placebo” value in data set [2] (difference, mavacamten (n = 123) vs placebo (n = 128)) was 19.4%. In addition, in data set [2] (in vivo), the “participants with temporary discontinuation associated with reduced ejection fraction” value was determined as 3; the “patients who achieved a complete response (NYHA 1 and all LVOT gradients below 30 mmHg)” value was found to be 27%; the “patients who achieved a post-exercise LVOT peak gradient below 30 mmHg” value is on record as 57%; the “subjects with severe TEAEs, %” value came out at 5.7%. Further, the “Rates of improvement by at least one NYHA class” value in data set [2] (patients not receiving β blocker(s)) worked out at 65%. Further, the “difference vs placebo in percent of patients that met the primary endpoint” value in data set [2] (patients not receiving β blocker(s) (n=29)) worked out at 52.6%. Besides, in data set [2] (patients receiving β blocker(s)), the “Rates of improvement by at least one NYHA class” value came out at 65%. In addition, the “difference vs placebo in percent of patients that met the primary endpoint” value in data set [2] (patients receiving β blocker(s) (n=94)) was determined as 8.7%. The “patients who achieved NYHA class I status” value in data set [2] (placebo 21%) came out at 65%. In addition, the “subjects who experienced SAEs, %” value in data set [2] (through week 30) came to 8.1%. In addition, the “Absence of MR (mitral regurgitation), Mava vs Placebo Difference (95% CI)” value in data set [2] (vs placebo) is on record as 9.0 (3.7, 14.3) %. Moreover, the “VE/CO2 slope change from baseline” value in data set [2] (week 30, non-β blocker subgroup) is on record as −2.5. Also, the “mean change in pVO2” value in data set [2] (week 30, those not using β blocker(s)) stood at 2.2 mL/kg/min. In data set [2] (week 30, β blocker subgroup), the “VE/CO2 slope change from baseline” value is given as −2.5 and the “mean change in pVO2” value worked out at 1.1 mL/kg/min.
